In patent US6355619B1, “Peptide tumor cell growth inhibitors” (Board of Regents, The University of Texas System, priority 1996, dated 2002):
Where two headings read alike, the source gives them in different places.

How the values were obtained:
[1] = biological target: T1, leukotriene B4 binding to human neutrophils (Homo sapiens, UniProt Q15722); test: Binding of 3H-leukotriene B4 to human neutrophils; conditions: 100 μM peptide; 0.4 nM 3H-labeled leukotriene B4
T1 construct: endogenous in cells; host or cells: human blood neutrophils
T1 sequence (Q15722 whole entry): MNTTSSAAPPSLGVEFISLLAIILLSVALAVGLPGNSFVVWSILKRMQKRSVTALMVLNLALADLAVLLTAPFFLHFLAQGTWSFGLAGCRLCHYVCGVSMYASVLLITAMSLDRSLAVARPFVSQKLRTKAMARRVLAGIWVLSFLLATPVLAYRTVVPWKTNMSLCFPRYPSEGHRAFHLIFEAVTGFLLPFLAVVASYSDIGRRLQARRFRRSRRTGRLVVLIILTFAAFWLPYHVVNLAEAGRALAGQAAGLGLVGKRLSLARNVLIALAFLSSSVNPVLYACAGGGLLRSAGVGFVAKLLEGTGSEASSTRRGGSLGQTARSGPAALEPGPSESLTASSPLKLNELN
From the text: To examine the specificity of Ac-RRWWCR-NH2 (SEQ ID NO:1) on ligand-receptor binding, the inventors tested whether the peptide reduced the binding of human ^125I-C5a or ^3H-leukotriene B4 to human neutrophils.
Recombinant human fifth component of complement (C5a) (Sigma Chemical Co., St. Louis, Mo.) was radioiodinated enzymatically using Enzymobead (Bio Rad, Richmond, Calif.). Tritiated leukotriene B4 was purchased from Du Pont Co., Wilmington, Del. Binding assays for C5a and leukotriene B4 were performed as described for IL-8 binding in Example I, except that the buffers used were PBS containing 1 mM CaCl2, 0.5 mM MgCl2, 0.5% BSA, and HBSS containing 0.1% ovulabumin and 10 mM HEPES (pH7.3), respectively, as previously described (Braunwalder et al., 1992; Sherman et al., 1988). The radioactivity was measured with liquid scintillation counter for the leukotriene B4 assay. The binding of both ligands were saturable and inhibited by the non-labeled agonists in dose dependent manners.

neutrophils = test: Checkerboard analysis for chemotactic activity of the peptide itself; type: cell-based, human
Experimental: Chemotaxis was performed using the leading front method as described by Zigmond and Hirsh (1973). IL-8 or controls were placed in the lower well of a Boyden chamber. A five micron pore size, 100 μm. thick cellulose nitrate filter (Sartorius Filter,. Inc., San Francisco, Calif.) was placed on the surface and the chamber was then assembled. A 200 μl aliquot of the neutrophil preparation (1×10^6 cells/ml) in RPMI-1640 media containing 1% BSA was added to the top of the filter and incubated at 37° C. for 30 min. The filter was then fixed, stained and mounted on a glass microscope slide. The leading front was determined by the position of the leading two cells. The distance that the leading two cells had moved through the filter was measured for six fields on each filter. The measurements were made with four filters for each set of conditions.

[2] = system: IL-8-stimulated neutrophil enzyme release; test: β-glucuronidase release from neutrophils stimulated by IL-8; type: cell-based, human
Experimental: FIG. 8. The Effect of Ac-RRWWCR-NH2 (SEQ ID NO:1) on β-glucuronidase Release. Neutrophils pretreated with cytochalasin B were incubated with 100 nM IL-8 (●), 100 nM fMLP (▪), 100 nM C5a (_) or 100 nM leukotriene B4 ? or without any stimulant (◯) in the presence of increasing concentration of Ac-RRWWCR-NH2 (SEQ ID NO:1) for 30 min at 37° C. β-glucuronidase activity of supernatants were measured using phenolphthalein-glucuronic acid as substrate. Analysis of variance was used for multiple comparison.
Neutrophil enzyme release was studied by a modification of the method of Goldstein and colleagues (Goldstein et al., 1973). Cytochalasin B (Sigma Chemical Co.) was stored in dimethyl sulfoxide at a concentration of 5 mg/ml and was diluted to a concentration of 50 μg/ml in Hank's Balanced Salt Solution (HBSS) immediately before use. Cytochalasin B, 200 μl, was added to 1 ml of suspension of neutrophils, 6.25×10^6 cells/ml in HBSS, to achieve a final cytochalasin B concentration of […]. The solution was then incubated in 96 well plates at room temperature for 10 min. The stimulant, 100 μl, was added, and this cell suspension was incubated for 30 min at 37° C. The plates were centrifuged and 100 μl of supernatant was removed. […] After 16 hr incubation at 37° C., 200 μl of 0.2 M Glycine in 0.2 M NaCl, pH10.4 was added to each well and OD540 was measured as the enzyme activity.

A375SM melanoma cells = test: Tumor cell growth, A375SM; type: cell-based
WM115 melanoma cells = test: Tumor cell growth, WM115; type: cell-based
[3] = system: lung adenocarcinoma cell line NCI-H441; test: Tumor cell growth, NCI-H441; type: cell-based
[4] = system: adenocarcinoma from colon Caco-2; test: Tumor cell growth, Caco-2; type: cell-based
IL-8 = IL-8 (Homo sapiens, UniProt P10145); test: Interaction of the peptide with IL-8; type: binding
Sequence of IL-8 (P10145 28-99): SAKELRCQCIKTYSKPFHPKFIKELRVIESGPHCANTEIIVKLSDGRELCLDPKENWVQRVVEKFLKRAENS

Hep G2 = conditions: 16 hr
Experimental: The cell lines (4×10^5 cells/well) in RPMI-1640 medium containing 10% fetal bovine serum were incubated with 10 μCi of Na2^51CrO4 (DuPont NEN Co.) for 60 min at 37° C. in a 24 well tissue culture plate. The cells were washed 3 times and then incubated in cell culture medium for 30 min at 37° C. to allow spontaneous lysis of marginally viable cells. […] The cells were cultured for 16 hr at 37° C. and then the radioactivity in the supernatants was counted in a gamma radiation spectrometer. Quadriplicate wells received cell culture medium alone or 2% SDS to determine spontaneous and maximum release, respectively. The percentage lysis was calculated by using the following formula: [formula]

[5] = peptide below filter 1.0 μM, above filter 5.0 μM
[6] = peptide below filter 1.0 μM, above filter 12.5 μM
[7] = peptide below filter 1.0 μM, above filter 25.0 μM
[8] = peptide below filter 5.0 μM, above filter 1.0 μM
[9] = peptide below filter 5.0 μM, above filter 12.5 μM
[10] = peptide below filter 5.0 μM, above filter 25.0 μM
[11] = peptide below filter 12.5 μM, above filter 1.0 μM
[12] = peptide below filter 12.5 μM, above filter 5.0 μM
[13] = peptide below filter 12.5 μM, above filter 25.0 μM
[14] = peptide below filter 25.0 μM, above filter 1.0 μM
[15] = peptide below filter 25.0 μM, above filter 5.0 μM
[16] = peptide below filter 25.0 μM, above filter 12.5 μM

RRWWCR [Ac-RRWWCR-NH2]
effect on binding of leukotriene B4 to neutrophils [1]: did not affect the binding | chemotactic activity of the peptide (checkerboard analysis) (neutrophils): not chemotactic for neutrophils | effect on chemokinesis of neutrophils (neutrophils; control studies, media alone): had no effect on chemokinesis | migration, mean ± SD of experimental observations (neutrophils; peptide below filter 1.0 μM, above filter 1.0 μM): 27.8 ± 5.5 | calculated migration expected if cells responded to absolute concentration, not gradient (neutrophils; [5]): 29.1 | migration, mean ± SD of experimental observations (neutrophils; [5]): 28.0 ± 4.7 | calculated migration expected if cells responded to absolute concentration, not gradient (neutrophils; [6]): 24.2 | migration, mean ± SD of experimental observations (neutrophils; [6]): 25.6 ± 4.0 | calculated migration expected if cells responded to absolute concentration, not gradient (neutrophils; [7]): 24.3 | migration, mean ± SD of experimental observations (neutrophils; [7]): 26.7 ± 6.3 | calculated migration expected if cells responded to absolute concentration, not gradient (neutrophils; [8]): 28.0 | migration, mean ± SD of experimental observations (neutrophils; [8]): 29.6 ± 6.3 | migration, mean ± SD of experimental observations (neutrophils; peptide below filter 5.0 μM, above filter 5.0 μM): 29.3 ± 7.2 | calculated migration expected if cells responded to absolute concentration, not gradient (neutrophils; [9]): 23.7 | migration, mean ± SD of experimental observations (neutrophils; [9]): 24.2 ± 5.4 | calculated migration expected if cells responded to absolute concentration, not gradient (neutrophils; [10]): 24.4 | migration, mean ± SD of experimental observations (neutrophils; [10]): 25.9 ± 6.7 | calculated migration expected if cells responded to absolute concentration, not gradient (neutrophils; [11]): 28.4 | migration, mean ± SD of experimental observations (neutrophils; [11]): 27.0 ± 5.5 | calculated migration expected if cells responded to absolute concentration, not gradient (neutrophils; [12]): 28.5 | migration, mean ± SD of experimental observations (neutrophils; [12]): 27.5 ± 4.8 | migration, mean ± SD of experimental observations (neutrophils; peptide below filter 12.5 μM, above filter 12.5 μM): 22.9 ± 5.9 | calculated migration expected if cells responded to absolute concentration, not gradient (neutrophils; [13]): 24.5 | migration, mean ± SD of experimental observations (neutrophils; [13]): 24.8 ± 5.8 | calculated migration expected if cells responded to absolute concentration, not gradient (neutrophils; [14]): 28.4 | migration, mean ± SD of experimental observations (neutrophils; [14]): 30.9 ± 4.7 | calculated migration expected if cells responded to absolute concentration, not gradient (neutrophils; [15]): 27.1 | migration, mean ± SD of experimental observations (neutrophils; [15]): 27.5 ± 4.9 | calculated migration expected if cells responded to absolute concentration, not gradient (neutrophils; [16]): 23.1 | migration, mean ± SD of experimental observations (neutrophils; [16]): 27.9 ± 4.8 | migration, mean ± SD of experimental observations (neutrophils; peptide below filter 25.0 μM, above filter 25.0 μM): 24.7 ± 3.8 | EC50 ([2]; read-out: EC50, inhibition of enzyme release from neutrophils stimulated by IL-8): 800 nM | peptide concentration inhibiting β-glucuronidase release ([2]; stimulated by 100 nM IL-8): 2 µM | effect on cell growth (A375SM melanoma cells): suppresses the growth | effect on cell growth (WM115 melanoma cells): suppresses the growth | effect on cell growth [3]: inhibits growth | effect on cell growth [4]: inhibits growth | interaction of the peptide with IL-8 (IL-8): does not interact with IL-8 | % cell lysis (Hep G2; Hep G2, 1 μM peptide): −2.1 ± 7.5% | % cell lysis (Hep G2; Hep G2, 5 μM peptide): −0.8 ± 8.3% | % cell lysis (Hep G2; Hep G2, 20 μM peptide): 5.8 ± 8.3% | % cell lysis (Hep G2; Hep G2, 100 μM peptide): 0.9 ± 2.9%
